In assay [1] the test system is A431 (human vulval carcinoma) cell line. Description: in vitro clonogenic assay, drug combined with ionizing radiation, A431. In kind it is cell-based. The note with it: for C20 drug concentration corresponding to 20% cell survival / C80 drug concentration corresponding to 80% cell survival: drug alone, 2 h treatment; for Sensitization Ratio SR, Values for each culture: simultaneous schedule (2 h drug, 10 min irradiation at start of 2nd hour), SR<1 = radiosensitisation; for Sensitization Ratio SR, Mean of duplicates: simultaneous schedule. Here is the method:
(§1) The remarkable radiosensitisation effect exerted by the α-bromo- or α-chloro-acryloyl-distamycin derivatives, in particular the compounds of formula (I), is shown according to in vitro clonogenic assays on SQ20B (radiation-resistant human squamous cell carcinoma of the larynx) and A431 (human vulval carcinoma) cell lines. In this respect, two different schedule treatments were evaluated either comprising simultaneous exposure to the tested compound of formula (I) and to radiation, or sequential exposure to both these cytotoxic agents in any order, that is drug/radiation or radiation/drug (see details below). As control, the effect of cisplatin in combination with radiotherapy has been tested in the same operative conditions.
(§2) To define a Sensitization Ratio (SR), the clonogenic survival of cells being treated with a combination of irradiation and drug exposure (SX+D) was compared with the product of survival for drug alone (SD) and irradiation alone (SX), as follows SR=SX+D/SD*SX
(§3) From the above, it is clear to the skilled person that if both radiation and drug exerted their cytotoxic effect independently from each other, SR values would be close to 1 whereas, on the contrary, a radiosensitisation effect indicating a synergism between ionizing radiation and drug is characterized by SR values lower than 1 (SR<1).
(§4) For both compounds Compound A and cisplatin, exposures were simultaneous to ionizing radiation in both SQ20B and A431 cell lines. The schedule consisted of 2 h drug treatment with a period of irradiation (10 minutes) starting at the beginning of the 2nd hour of treatment.
(§5) Four data sets for each of Compound A and cisplatin, in each cell line were obtained (see table 1) comprising duplicates of two different drug concentration chosen to yield cytotoxicity values corresponding to 80% (C80) and 20% (C20) survival for treatment with the drug alone. […]

Assay [2] concerns SQ20B (radiation-resistant human squamous cell carcinoma of the larynx) cell line. The experiment in a line: in vitro clonogenic assay, drug combined with ionizing radiation, SQ20B. In kind it is cell-based. The note with it: for C20 drug concentration corresponding to 20% cell survival / C80 drug concentration corresponding to 80% cell survival: drug alone, 2 h treatment; for Sensitization Ratio SR, Values for each culture: simultaneous schedule (2 h drug, 10 min irradiation at start of 2nd hour), SR<1 = radiosensitisation; for Sensitization Ratio SR, Mean of duplicates: simultaneous schedule. Here is the method: as §1, §2, §3, §4, §5

Setting [3] is: drug at C20 (Compound A 90 ng/ml, cisplatin 5.0 μM).
[4] abbreviates: drug at C80 (Compound A 20 ng/ml, cisplatin 0.8 μM).
[5] abbreviates: drug at C20 (Compound A 350 ng/ml, cisplatin 6.5 μM).
Setting [6] is: drug at C80 (Compound A 50 ng/ml, cisplatin 0.4 μM).

Several values for one entry are separate records, joined by “and”; a condition that tells them apart may be missing. Identical values can stand only once. Marks after values point to notes of the source that are not given here.

Turning to `C=C(Br)C(=O)Nc1cc(C(=O)Nc2cc(C(=O)Nc3cc(C(=O)Nc4cc(C(=O)NCCNC(=N)N)n(C)c4)n(C)c3)n(C)c2)n(C)c1.Cl` [Compound A, N-[5-[[[5-[[[2-[(animoiminomethyl)amino]ethyl]amino]carbonyl]-1-methyl-1H-pyrrol-3-yl]amino]carbonyl]-1-methyl-1H-pyrrol-3-yl]-4-[[[4-[(2-bromo-1-oxo-2-propenyl)amino]-1-methyl-1H-pyrrol-2-yl]carbonyl]amino]-1-methyl-1H-pyrrole-2-carboxamide hydrochloride], the entries for the “C20 drug concentration corresponding to 20% cell survival” value in assay [1] and in assay [2] were 90 (C20) ng/ml and 350 (C20)^(d) ng/ml, respectively. For the same compound, the “C80 drug concentration corresponding to 80% cell survival” value in assay [1] is given as 20 (C80) ng/ml; in assay [2], 50 (C80)^(c) ng/ml. In addition, the “Sensitization Ratio SR, Values for each culture” value is 0.33 and 0.40 in assay [1] (drug at C20 (Compound A 90 ng/ml, cisplatin 5.0 μM), hydrochloride); 0.65 and 0.59 in assay [1] (drug at C80 (Compound A 20 ng/ml, cisplatin 0.8 μM), hydrochloride); 0.55 and 0.46 in assay [2] (drug at C20 (Compound A 350 ng/ml, cisplatin 6.5 μM), hydrochloride); 0.84 and 0.85 in assay [2] (drug at C80 (Compound A 50 ng/ml, cisplatin 0.4 μM), hydrochloride). For the same compound, the “Sensitization Ratio SR, Mean of duplicates” value in assay [1] (setting [3]) is “C20 0.37”; in assay [1] (setting [4]) it was “C80 0.62”; in assay [2] (setting [5]), “C20 0.50”; in assay [2] (setting [6]), “C80 0.85”. In addition, the “Sensitization Ratio SR / radiosensitisation effect” value in assay [2] (combination with radiotherapy, summary over concentrations) is listed as “lower than 1”.

As for `N.N.[Cl][Pt][Cl]` [cisplatin, reference compound], the “C20 drug concentration corresponding to 20% cell survival” value in assay [1] was 5.0 (C20) μM; in assay [2] it was 6.5 (C20) μM. Also, the “C80 drug concentration corresponding to 80% cell survival” value is given as 0.8 (C80) μM in assay [1] and 0.4 (C80) μM in assay [2]. Besides, the “Sensitization Ratio SR, Values for each culture” value in assay [1] (setting [3]) was 1.08 and 0.86; in assay [1] (setting [4]) it was 1.02 and 0.84; in assay [2] (setting [5]), 0.72 and 0.81; in assay [2] (setting [6]) it was 0.78 and 0.82. Also, the “Sensitization Ratio SR, Mean of duplicates” value is reported as “C20 0.97” in assay [1] (setting [3]), “C80 0.96” in assay [1] (setting [4]), “C20 0.77” in assay [2] (setting [5]) and “C80 0.80” in assay [2] (setting [6]).

These data come from patent US20110166077A9, “COMBINED THERAPY AGAINST TUMORS COMPRISING SUBSTITUTED ACRYLOYL DISTAMYCIN DERIVATIVES AND RADIOTHERAPY” (Pharmacia Italia S.p.A., priority 2002, published 2011).
